The values that follow come from PubChem BioAssay (NCI).

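The compound was tested at five concentrations on cells cultured in 96-well plates, with a 48-hour exposure period. Abbreviation: GI50, concentration required for 50% inhibition of growth. TGI is the concentration that stops growth completely.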

Among the test systems are KM12 colon; TK-10 renal; U251 CNS; SK-MEL-2 melanoma; NCI-H23 lung; OVCAR-5 ovarian; K-562 leukemia; SW-620 colon; MOLT-4 leukemia; HL-60(TB) leukemia.
Holding throughout (assay): growth of human tumour cells (NCI), 48 h

Turning to `CCOc1cc2ncc(C#N)c(Nc3ccc(F)c(Cl)c3)c2cc1NC(=O)/C=C/CN(C)C`, the GI50 with KM12 colon is 1.22 µM; in the test on TK-10 renal it was 0.00445 µM; in the test with U251 CNS, 0.625 µM; with SK-MEL-2 melanoma, 0.349 µM; with NCI-H23 lung, 1.32 µM; in the test on OVCAR-5 ovarian, 0.344 µM. Also, the GI50 with K-562 leukemia was 0.36 µM; in the test with SW-620 colon it was 0.485 µM; in the test with MOLT-4 leukemia it was 0.716 µM; in the test with HL-60(TB) leukemia it was 0.57 µM. The TGI in the test on KM12 colon was 3.01 µM; in the test on TK-10 renal, 0.506 µM; in the test with U251 CNS it was more than 4.89 µM; in the test with SK-MEL-2 melanoma it was more than 3.21 µM; with NCI-H23 lung, more than 7.42 µM; with OVCAR-5 ovarian it was more than 5.93 µM. The TGI in the test with K-562 leukemia was more than 4.21 µM; in the test on SW-620 colon it was 3.23 µM; in the test on MOLT-4 leukemia it was more than 4.91 µM; in the test with HL-60(TB) leukemia, more than 5.51 µM.

As to `Cc1cc2c(c(C#N)c1C)NC(=O)C(CC(=O)O)C2=O` (stereo not given), the TGI with KM12 colon, in the test with TK-10 renal, with U251 CNS, with SK-MEL-2 melanoma, in the test with NCI-H23 lung and in the test with OVCAR-5 ovarian was more than 100 µM each time. For the same compound, the TGI in the test with K-562 leukemia, with SW-620 colon, in the test on MOLT-4 leukemia and in the test on HL-60(TB) leukemia was more than 100 µM in each case.

`CC(=O)Oc1cccc2c1C(=O)C(Br)(Br)CCC2`: the TGI is 23.2 µM in the test with KM12 colon; 30.8 µM in the test on TK-10 renal; 23.7 µM in the test on U251 CNS; 21.5 µM in the test with SK-MEL-2 melanoma; 18.7 µM in the test on NCI-H23 lung; 21.9 µM in the test on OVCAR-5 ovarian. For the same compound, the TGI in the test with K-562 leukemia came to 20.8 µM; in the test with SW-620 colon, 9.13 µM; in the test on MOLT-4 leukemia it was 13.8 µM; with HL-60(TB) leukemia, 6.51 µM.

With `N#CSCC1CC(O)(c2ccccc2)C(c2ccccc2)C(c2ccc(F)cc2)O1` (stereo not given), the GI50 is 2.32 µM in the test with KM12 colon; 2.38 µM in the test with TK-10 renal; 3.66 µM in the test on U251 CNS; 2.69 µM with SK-MEL-2 melanoma; 3.21 µM in the test on NCI-H23 lung; 7.24 µM with OVCAR-5 ovarian. For the same compound, the GI50 is 1.5 µM in the test with K-562 leukemia, 3.02 µM in the test on SW-620 colon, 0.676 µM in the test on MOLT-4 leukemia and 0.672 µM in the test on HL-60(TB) leukemia. For the same compound, the TGI in the test on KM12 colon came to 5.85 µM; in the test with TK-10 renal, 6.3 µM; in the test with U251 CNS, 15.1 µM; with SK-MEL-2 melanoma, 7.78 µM; in the test with NCI-H23 lung, 11.1 µM; in the test with OVCAR-5 ovarian it was 19.4 µM. Besides, the TGI in the test on K-562 leukemia is 5.97 µM; in the test with SW-620 colon, 10 µM; in the test on MOLT-4 leukemia it was 4.51 µM; with HL-60(TB) leukemia, 2.96 µM.

For the compound `Cc1c(C(=O)CC(=O)C(=O)Nc2cccc(C(F)(F)F)c2)[n+](=O)c2ccccc2n1[O-]`, the TGI in the test with KM12 colon turned out to be 21.7 µM; in the test with TK-10 renal it was 79.7 µM; with U251 CNS, 11 µM; in the test on SK-MEL-2 melanoma, 18.5 µM; in the test with NCI-H23 lung it was 40.5 µM; in the test with OVCAR-5 ovarian it was 19.5 µM. The TGI was found to be 14.1 µM in the test with K-562 leukemia, 12.2 µM in the test with SW-620 colon, 7.56 µM in the test on MOLT-4 leukemia and 7.65 µM in the test on HL-60(TB) leukemia.

`Cc1ccc(NC2=C(Sc3ccc(Cl)cc3)C(=O)N(Cc3ccccc3)C2=O)cc1Cl`: the GI50 was 31.1 µM with KM12 colon; 11.7 µM in the test on TK-10 renal; 3.24 µM with U251 CNS; 13.2 µM in the test with SK-MEL-2 melanoma; 13.3 µM in the test with NCI-H23 lung; 10.5 µM in the test with OVCAR-5 ovarian. In addition, the GI50 in the test on K-562 leukemia was 3.66 µM; in the test with SW-620 colon, 6.01 µM; with MOLT-4 leukemia, 10.5 µM; with HL-60(TB) leukemia, 11.9 µM. The TGI in the test on KM12 colon was more than 100 µM; in the test on TK-10 renal it was 68.3 µM; with U251 CNS, 14 µM; in the test on SK-MEL-2 melanoma, 33.3 µM; in the test on NCI-H23 lung, 32.8 µM; in the test on OVCAR-5 ovarian, 25.1 µM. Also, the TGI in the test with K-562 leukemia was found to be 19.7 µM; in the test on SW-620 colon, 36.2 µM; in the test on MOLT-4 leukemia, 26 µM; with HL-60(TB) leukemia, 27.6 µM.

`O[C@]12CCCC[C@H]1CCC2`: the TGI in the test with KM12 colon, in the test on TK-10 renal, in the test on U251 CNS, in the test with SK-MEL-2 melanoma, in the test with NCI-H23 lung and in the test with OVCAR-5 ovarian was more than 100 µM each time. For the same compound, the TGI in the test with K-562 leukemia, in the test on SW-620 colon, in the test with MOLT-4 leukemia and in the test on HL-60(TB) leukemia was more than 100 µM throughout.

As for `O=c1[nH]nc2c3c(cccc13)NC(CN1Cc3ccccc3C1)=N2`, the GI50 with KM12 colon is 4.41 µM; in the test with TK-10 renal, 8.89 µM; in the test with U251 CNS, 8.05 µM; in the test with SK-MEL-2 melanoma, more than 100 µM; with NCI-H23 lung it was 4.41 µM; in the test with OVCAR-5 ovarian, 5.73 µM. The GI50 in the test on K-562 leukemia is 8.19 µM; in the test with SW-620 colon, 7.03 µM; in the test with MOLT-4 leukemia, 4.56 µM; with HL-60(TB) leukemia it was 9.13 µM. The TGI with KM12 colon, with TK-10 renal, in the test with U251 CNS, in the test with SK-MEL-2 melanoma, in the test with NCI-H23 lung and in the test on OVCAR-5 ovarian was more than 100 µM each time. The TGI in the test with K-562 leukemia, with SW-620 colon, in the test with MOLT-4 leukemia and in the test on HL-60(TB) leukemia was more than 100 µM each time.

With `CCC(C)/C=C(C)/C=C/C(=O)c1c(O)c(-c2ccc(O)cc2)c[nH]c1=O` (stereo not given), the GI50 in the test on KM12 colon was 3.41 µM; in the test on TK-10 renal, 4.32 µM; with U251 CNS, 3.01 µM; in the test with SK-MEL-2 melanoma, 3.53 µM; in the test with NCI-H23 lung, 3.62 µM; with OVCAR-5 ovarian, 6.1 µM. The GI50 with K-562 leukemia is 3.39 µM; with SW-620 colon, 3.5 µM; in the test on MOLT-4 leukemia, 2.73 µM; with HL-60(TB) leukemia, 2.43 µM. The TGI is 12.4 µM with KM12 colon; 15.3 µM in the test with TK-10 renal; 13 µM with U251 CNS; 11 µM with SK-MEL-2 melanoma; 17.6 µM with NCI-H23 lung; 23.5 µM in the test with OVCAR-5 ovarian. The TGI in the test on K-562 leukemia was found to be 15.1 µM; in the test on SW-620 colon, 11.9 µM; in the test on MOLT-4 leukemia it was 15.1 µM; in the test on HL-60(TB) leukemia, 21.2 µM.
